In US12497378B2, “Tetrahydronaphthalene compounds, pharmaceutical compositions, and uses thereof” (GUANGZHOU HENOVCOM BIOSCIENCE CO., LTD., priority 2020, dated 2025):

Assay: Pharmacokinetics experiment in mouse after intramuscular injection of compound suspensions
Assay type: in vivo
Details: 9 mg/kg (calculated according to Rotigotine), SD mice, plasma
Procedure: The compounds of the present disclosure were precisely weighed in a proper amount and placed in a 20 ml vial, a blank matrix solution and a zirconia grinding ball were added to grind by vortex. After grinding, the suspension sample was transferred, and the blank matrix solution was used for diluting the suspension sample to final volume, and the suspension sample was packaged into 7 ml vials to prepare about a 20 mg/ml suspension. After the quantitative analysis was determined, the suspension was used for the pharmacokinetics experiment in the mouse.
Suspensions of Embodiments 15, 24, 27, 32 and 54 were prepared according to the method of Embodiment 82 and were taken at a dose of 9 mg/kg(calculated according to Rotigotine), and each of the above-mentioned compound suspensions was intramuscularly administrated for three SD mice, and whole blood samples were taken in 1 h, 4 h, 8 h, 24 h, 48 h, 72 h, 96 h, 120 h, 168 h, 216, 264 h, 312 h, and 360 h after administration, with 0.3 ml/time point. K2EDT/heparin sodium were added to the whole blood samples for anticoagulation, and a BNPP stabilizer was further added, and then each whole blood sample was centrifuged to obtain plasma in 30 min.

## (S)-6-(propyl(2-(thiophen-2-yl)ethyl)amino)-5,6,7,8-tetrahydronaphthalen-1-yl 3-(16-(ethylamino)-16-oxohexadecanamido) propanoate [Embodiment 54]
1 h after intramuscular injection of compound suspension
  blood concentrations of the active compounds: 0.288 ng/mL
4 h after intramuscular injection of compound suspension
  blood concentrations of the active compounds: 1.26 ng/mL
8 h after intramuscular injection of compound suspension
  blood concentrations of the active compounds: 2.53 ng/mL
24 h after intramuscular injection of compound suspension
  blood concentrations of the active compounds: 2.31 ng/mL
48 h after intramuscular injection of compound suspension
  blood concentrations of the active compounds: 2.02 ng/mL
72 h after intramuscular injection of compound suspension
  blood concentrations of the active compounds: 1.51 ng/mL
96 h after intramuscular injection of compound suspension
  blood concentrations of the active compounds: 1.57 ng/mL
120 h after intramuscular injection of compound suspension
  blood concentrations of the active compounds: 1.86 ng/mL
168 h after intramuscular injection of compound suspension
  blood concentrations of the active compounds: 2.29 ng/mL
216 h after intramuscular injection of compound suspension
  blood concentrations of the active compounds: 2.76 ng/mL
264 h after intramuscular injection of compound suspension
  blood concentrations of the active compounds: 1.83 ng/mL
312 h after intramuscular injection of compound suspension
  blood concentrations of the active compounds: 1.33 ng/mL
360 h after intramuscular injection of compound suspension
  blood concentrations of the active compounds: 0.906 ng/mL
